Measurements published in US10501516B2, “Peptide compound” (TAKEDA PHARMACEUTICAL COMPANY LIMITED, priority 2016, dated 2019).
Square brackets hold non-standard residues; d marks the D form. Side chains are listed from the residue outwards. Peptide text beside a SMILES is read from it. * marks the point of attachment. C18 diacid = O=C(O)CCCCCCCCCCCCCCCCC(=O)*; NMeY = CN[C@@H](Cc1ccc(O)cc1)C(=O)O; Palmitoyl = CCCCCCCCCCCCCCCC(=O)*; αMeF = C[C@](N)(Cc1ccccc1)C(=O)O; Iva = CC[C@](C)(N)C(=O)O; Aib = CC(C)(N)C(=O)O

Assays:
human GIPR = target: T1, human GIPR (Homo sapiens, UniProt P48546); test: Reporter assay of human GIPR gene (agonist activity, intracellular cAMP as index); assay type: cell-based; conditions: Cre-luc reporter, hGIPR/CHO-K1 cells, 4 hours
T1 construct: expressed in transfected cells; host or cells: CHO-K1 Cre-luc reporter cells (hGIPR/CHO-K1, also called hGIPR/CRE-LUC/CHO-K1)
T1 sequence (P48546 22-466): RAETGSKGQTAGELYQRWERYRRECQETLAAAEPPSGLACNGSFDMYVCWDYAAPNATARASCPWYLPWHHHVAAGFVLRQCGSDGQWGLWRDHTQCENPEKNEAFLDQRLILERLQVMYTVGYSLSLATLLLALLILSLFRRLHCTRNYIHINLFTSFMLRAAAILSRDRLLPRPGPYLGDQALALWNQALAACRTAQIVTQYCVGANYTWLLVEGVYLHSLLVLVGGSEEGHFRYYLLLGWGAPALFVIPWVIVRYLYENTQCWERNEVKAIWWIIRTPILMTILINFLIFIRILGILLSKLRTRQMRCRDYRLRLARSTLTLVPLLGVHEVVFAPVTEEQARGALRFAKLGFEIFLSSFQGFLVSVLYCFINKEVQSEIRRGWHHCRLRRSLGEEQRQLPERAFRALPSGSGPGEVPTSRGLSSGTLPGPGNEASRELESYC
Source text: Evaluation of Agonist Activity Against Human NPY2R, Human GIPR, and Human GLP-1R Using Change in Intracellular cAMP Concentration as Index
The human GIPR gene having a sequence identical to the sequence of GenBank Accession No. U39231 was cloned into pMSRα-neo vector to prepare hGIPR/pMSRα-neo. This vector was introduced to the Cre-luc reporter cells obtained in (1) to obtain transformants. Next, a cell line induced to express luciferase, i.e., hGIPR/CHO-K1 cells, were selected from the obtained transformants by the addition of GIP.
The hGIPR/CRE-LUC/CHO-K1 cells or the hGLP-1R/Crel cells were inoculated at a cell density of 25 μL/well (5,000 cells/well) to a 384-well white plate (Corning, 3570), and cultured overnight in Ham F12 medium containing 10% fetal bovine serum, 100 U/mL penicillin and 100 μg/mL streptomycin in a CO2 incubator of 37° C. On the next day, a medium containing a test compound was added at a concentration of 5 μL/well to the cells, and the resultant cells were incubated for 4 hours in a CO2 incubator of 37° C. to give the final concentration of 1 μM. SteadyGlo (Promega) was added thereto at a concentration of 30 μL/well, and the mixture was shaken with light shielded. After 30 minutes, the luciferase activity was measured using a plate reader Envision (PerkinElmer). For the GIPR agonist activity, the luciferase activity in the presence of 10 μM GIP was defined as 100%, and the luciferase activity from the addition of DMSO instead of the test compound was defined as 0%. The GIPR agonist activity was calculated with a rise in intracellular cAMP concentration as an index.

male C57BL/6J mouse = test: Evaluation of feeding suppressive action in mice; assay type: in vivo; conditions: 30 nmol/kg s.c. once a day for 3 days; 3-days cumulative food consumption vs solvent control
Procedure: The feeding suppressive activity of a test compound was examined by the method described below.
The test compound was dissolved at a concentration of 30 or 100 nmol/2 mL in a solvent (10% DMSO-containing physiological saline). The test compound solution was subcutaneously administered at a dose of 2 mL/kg to the back of each male C57BL/6J mouse at 8-9 weeks of age (20-26° C., allowed to take food and water ad libitum; raised in the 12-hour bright-12-hour dark cycle). The administration was performed once a day for 3 days. After the administration, the mouse was individually raised in a rearing cage, and given previously weighed food; food consumption for 3 days after the start of administration was measured. The food consumption was calculated by subtracting the amount of remaining food from the weight of the food given on the day of the start of administration. When the food consumption of a control group receiving administration of the solvent alone was regarded as a suppression rate of 0%, the feeding suppressive activity of each test compound was evaluated on the basis of 3-days cumulative food consumption after the start of administration. The food intake suppression rate (%) of the test compound was defined as (Food consumption of the control group−Food consumption of the test compound-administered group)/Food consumption of the control group×100.

Row | EC50 (human GIPR) [nM] | Structure (SMILES) | Rate of feeding suppression (%) (male C57BL/6J mouse)
1 | 0.17 | CC[C@H](C)[C@H](NC(=O)[C@H](C)NC(=O)[C@H](CCCCNC(=O)CNC(=O)CNC(=O)CNC(=O)CNC(=O)CCCCCCCCCCCCCCCCC(=O)O)NC(=O)[C@H](CC(=O)O)NC(=O)[C@H](CO)NC(=O)[C@@H](NC(=O)[C@](C)(Cc1ccccc1)NC(=O)[C@@H](NC(=O)CNC(=O)[C@H](CCC(=O)O)NC(=O)C(C)(C)NC(=O)[C@H](Cc1ccc(O)cc1)NC)[C@@H](C)O)[C@@H](C)O)C(=O)NC(C)(C)C(=O)N[C@@H](CC(C)C)C(=O)N[C@@H](CC(=O)O)C(=O)N[C@@H](CCCCN)C(=O)N[C@@H](CCC(N)=O)C(=O)N[C@@H](CCCNC(=N)N)C(=O)N[C@@H](CCC(N)=O)C(=O)N[C@@](C)(CC)C(=O)N[C@@H](CCC(=O)O)C(=O)N[C@@H](Cc1ccccc1)C(=O)N[C@H](C(=O)N[C@@H](CCCNC(=N)N)C(=O)N[C@@H](Cc1c[nH]cn1)C(=O)N[C@@H](CC(C)C)C(=O)N[C@@H](CC(C)C)C(=O)N[C@@H](CC(N)=O)C(=O)N[C@@H](CCCCN)C(=O)NC(C)(C)C(=O)N[C@H](C(=O)N[C@@H](CCCNC(=N)N)C(=O)N[C@@H](CCC(N)=O)C(=O)N[C@@H](CCCNC(=N)N)C(=O)N[C@@H](Cc1ccc(O)cc1)C(N)=O)[C@@H](C)O)C(C)C [Example 14] (H-[NMeY][Aib]EGT[αMeF]TSDK([Gly-Gly-Gly-Gly-C18 diacid])AI[Aib]LDKQRQ[Iva]EFVRHLLNK[Aib]TRQRY-NH2) | 
2 |  | CCCCCCCCCCCCCCCC(=O)NCC(=O)NCC(=O)NCC(=O)NCC(=O)NCCCC[C@H](NC(=O)[C@H](CC(=O)O)NC(=O)[C@H](CO)NC(=O)[C@@H](NC(=O)[C@](C)(Cc1ccccc1)NC(=O)[C@@H](NC(=O)CNC(=O)[C@H](CCC(=O)O)NC(=O)C(C)(C)NC(=O)[C@@H](N)Cc1ccc(O)cc1)[C@@H](C)O)[C@@H](C)O)C(=O)NC(C)(C)C(=O)N[C@H](C(=O)NC(C)(C)C(=O)N[C@@H](CC(C)C)C(=O)N[C@@H](CCC(=O)O)C(=O)N[C@@H](CCCCN)C(=O)N[C@@H](CCC(N)=O)C(=O)N[C@@H](CCCNC(=N)N)C(=O)N[C@@H](CCC(N)=O)C(=O)N[C@@](C)(CC)C(=O)N[C@@H](CCC(=O)O)C(=O)N[C@@H](Cc1ccccc1)C(=O)N[C@H](C(=O)N[C@@H](CCCNC(=N)N)C(=O)N[C@@H](Cc1c[nH]cn1)C(=O)N[C@@H](CC(C)C)C(=O)N[C@@H](CC(C)C)C(=O)N[C@@H](CC(N)=O)C(=O)N[C@@H](CCCCN)C(=O)NC(C)(C)C(=O)N[C@H](C(=O)N[C@@H](CCCNC(=N)N)C(=O)N[C@@H](CCC(N)=O)C(=O)N[C@@H](CCCNC(=N)N)C(=O)N[C@@H](Cc1ccc(O)cc1)C(N)=O)[C@@H](C)O)C(C)C)[C@@H](C)CC [Example 31] (H-Y[Aib]EGT[αMeF]TSDK([Gly-Gly-Gly-Gly-Palmitoyl])[Aib]I[Aib]LEKQRQ[Iva]EFVRHLLNK[Aib]TRQRY-NH2) | −56.8
3 |  | CC[C@H](C)[C@H](NC(=O)C(C)(C)NC(=O)[C@H](CCCCNC(=O)CNC(=O)CNC(=O)CNC(=O)CNC(=O)CCCCCCCCCCCCCCCCC(=O)O)NC(=O)[C@H](CC(=O)O)NC(=O)[C@H](CO)NC(=O)[C@@H](NC(=O)[C@](C)(Cc1ccccc1)NC(=O)[C@@H](NC(=O)CNC(=O)[C@H](CCC(=O)O)NC(=O)C(C)(C)NC(=O)[C@@H](N)Cc1ccc(O)cc1)[C@@H](C)O)[C@@H](C)O)C(=O)NC(C)(C)C(=O)N[C@@H](CC(C)C)C(=O)N[C@@H](CCC(=O)O)C(=O)N[C@@H](CCCCN)C(=O)N[C@@H](CCC(N)=O)C(=O)N[C@@H](CCCNC(=N)N)C(=O)N[C@@H](CCC(N)=O)C(=O)N[C@@](C)(CC)C(=O)N[C@@H](CCC(=O)O)C(=O)N[C@@H](Cc1ccccc1)C(=O)N[C@H](C(=O)N[C@@H](CCCNC(=N)N)C(=O)N[C@@H](Cc1c[nH]cn1)C(=O)N[C@@H](CC(C)C)C(=O)N[C@@H](CC(C)C)C(=O)N[C@@H](CC(N)=O)C(=O)N[C@@H](CCCCN)C(=O)NC(C)(C)C(=O)N[C@H](C(=O)N[C@@H](CCCNC(=N)N)C(=O)N[C@@H](CCC(N)=O)C(=O)N[C@@H](CCCNC(=N)N)C(=O)N[C@@H](Cc1ccc(O)cc1)C(N)=O)[C@@H](C)O)C(C)C [Example 32] (H-Y[Aib]EGT[αMeF]TSDK([Gly-Gly-Gly-Gly-C18 diacid])[Aib]I[Aib]LEKQRQ[Iva]EFVRHLLNK[Aib]TRQRY-NH2) | −51.0
4 |  | CCCCCCCCCCCCCCCC(=O)NCC(=O)NCC(=O)NCC(=O)NCC(=O)NCCCC[C@H](NC(=O)[C@H](CC(=O)O)NC(=O)[C@H](CO)NC(=O)[C@@H](NC(=O)[C@](C)(Cc1ccccc1)NC(=O)[C@@H](NC(=O)CNC(=O)[C@H](CCC(=O)O)NC(=O)C(C)(C)NC(=O)[C@@H](N)Cc1ccc(O)cc1)[C@@H](C)O)[C@@H](C)O)C(=O)N[C@@H](C)C(=O)N[C@H](C(=O)NC(C)(C)C(=O)N[C@@H](CC(C)C)C(=O)N[C@@H](CCC(=O)O)C(=O)N[C@@H](CCCCN)C(=O)N[C@@H](CCC(N)=O)C(=O)N[C@@H](CCCNC(=N)N)C(=O)N[C@@H](CCC(N)=O)C(=O)N[C@@](C)(CC)C(=O)N[C@@H](CCC(=O)O)C(=O)N[C@@H](Cc1ccccc1)C(=O)N[C@H](C(=O)N[C@@H](CCCNC(=N)N)C(=O)N[C@@H](Cc1c[nH]cn1)C(=O)N[C@@H](CC(C)C)C(=O)N[C@@H](CC(C)C)C(=O)N[C@@H](CC(N)=O)C(=O)N[C@@H](CCCCN)C(=O)NC(C)(C)C(=O)N[C@H](C(=O)N[C@@H](CCCNC(=N)N)C(=O)N[C@@H](CCC(N)=O)C(=O)N[C@@H](CCCNC(=N)N)C(=O)N[C@@H](Cc1ccc(O)cc1)C(N)=O)[C@@H](C)O)C(C)C)[C@@H](C)CC [Example 35] (H-Y[Aib]EGT[αMeF]TSDK([Gly-Gly-Gly-Gly-Palmitoyl])AI[Aib]LEKQRQ[Iva]EFVRHLLNK[Aib]TRQRY-NH2) | −52.6
5 |  | CCCCCCCCCCCCCCCC(=O)NCC(=O)NCC(=O)NCC(=O)NCC(=O)NCCCC[C@H](NC(=O)[C@H](CC(=O)O)NC(=O)[C@H](CO)NC(=O)[C@@H](NC(=O)[C@](C)(Cc1ccccc1)NC(=O)[C@@H](NC(=O)CNC(=O)[C@H](CCC(=O)O)NC(=O)C(C)(C)NC(=O)[C@H](Cc1ccc(O)cc1)NC)[C@@H](C)O)[C@@H](C)O)C(=O)N[C@@H](C)C(=O)N[C@H](C(=O)NC(C)(C)C(=O)N[C@@H](CC(C)C)C(=O)N[C@@H](CCC(=O)O)C(=O)N[C@@H](CCCCN)C(=O)N[C@@H](CCC(N)=O)C(=O)N[C@@H](CCCNC(=N)N)C(=O)N[C@@H](CCC(N)=O)C(=O)N[C@@](C)(CC)C(=O)N[C@@H](CCC(=O)O)C(=O)N[C@@H](Cc1ccccc1)C(=O)N[C@H](C(=O)N[C@@H](CCCNC(=N)N)C(=O)N[C@@H](Cc1c[nH]cn1)C(=O)N[C@@H](CC(C)C)C(=O)N[C@@H](CC(C)C)C(=O)N[C@@H](CC(N)=O)C(=O)N[C@@H](CCCCN)C(=O)NC(C)(C)C(=O)N[C@H](C(=O)N[C@@H](CCCNC(=N)N)C(=O)N[C@@H](CCC(N)=O)C(=O)N[C@@H](CCCNC(=N)N)C(=O)N[C@@H](Cc1ccc(O)cc1)C(N)=O)[C@@H](C)O)C(C)C)[C@@H](C)CC [Example 37] (H-[NMeY][Aib]EGT[αMeF]TSDK([Gly-Gly-Gly-Gly-Palmitoyl])AI[Aib]LEKQRQ[Iva]EFVRHLLNK[Aib]TRQRY-NH2) | −54.9
